Experimental data reported in patent publication US20020058636A1, “RIBOZYMES TARGETING THE RETROVIRAL PACKAGING SEQUENCE EXPRESSION CONSTRUCTS AND RECOMBINANT RETROVIRUSES CONTAINING SUCH CONSTRUCTS” (priority 1994, published 2002).

How the values were obtained:
Format in all cases: cell-based
HIV-1 (SF2) [1] = assay: HIV-1 p24 antigen assay in ribozyme-expressing Sup T-1 cells
Method: Vector, is the control construct. Rz-2 and Rz-M are two ribozyme constructs targeted to the tat gene of HIV. Rz-M is a multi-ribozyme containing several ribozymes targeted to different sites within tat. This includes the site targeted by Rz-2.
(§1) Two assays, p24 antigen and syncytium formation, were performed to assess efficacy of the anti-HIV Psi ribozyme construct in cell culture. HIV-1 p24 antigen assay is an enzyme immunoassay, which uses a murine monoclonal antibody against HIV core antigen coated onto microwell strips. The HIV-1 syncytium assay is based on the observation that HIV-1 interacts with target T lymphocytes by causing fusion resulting in the formation of syncytia, large cells containing many nuclei. The clonal ribozyme-construct expressing cells, plus controls, were infected with HIV-1 (SF2) at m.o.i. of 0.1 to 1. After 2 hours, the cells were washed, and 10 ml of fresh media was added. Every 3-4 days, the number of both syncitia and viable cells were counted. […] In addition, the presence of the ribozyme caused a delay in syncitia formation (Table 4).
In another experimental protocol, the cells were pelleted, and an aliquot of the supernatant taken for p24 assay. In this experiment there was an inhibition of p24 levels to day 22 post challenge.

HIV-1 IIIB = assay: BM12 antibody and ribozyme expression, p24 production in SupT1 cells; conditions: BM12 Concentration 0.00 μg/ml
Method: The anti-HIV-1 antibody BM12 has been tested for its potential combined effect with ribozymes on HIV-1 replication. Rz2 (a single ribozyme targeted to the HIV-1 tat gene) and SV2neo vector expressing SupT1 cells were infected with HIV-1 IIIB virus for 2 hr and then washed. The cells were resuspended in BM12 antibody containing medium (0, 0.5, 5, 50 μg BM12 antibody/ml) and incubated at 37° C., 5% CO2. Samples of medium were taken at days 3, 5, 9, 12 and 15 for p24 assays. Cytopathic effect (CPE) determined by syncytia formation was monitored at days 3, 6, 9, 12. […] The following Table 6 summarizes the p24 data at day 15.

HIV-1 (SF2) [2] = assay: Syncitia formation of infected SupT1 cells over days post infection
Method: The anti-HIV packaging site construct, pSV-Rz-HIV-Psi, was electroporated into Sup T-1 cells, a human T lymphoma cell line. Exponentially growing cells were harvested and the number of viable cells counted by dye exclusion. The cells were washed with PBS and resuspended at a density of 1×10^7 viable cells/ml in RPMI media without FCS but containing 10 m,M dextrose and 0.1 mM dithiothreitol. 0.4 ml of the cell suspension and 10 μg of pSV-Rz-HIV-Psi plasmid DNA were used per electroporation in 0.4 cm cuvettes (Bio-Rad) . The cell and DNA mixture was subjected to a single pulse of 960 μF, 200V from a Gene Pulser (Bio-Rad) . After shocking, the cuvette was incubated for 10 minutes at room temperature, and the cells were then transferred to 10 ml of RPMI media with 10% FCS and placed into an incubator (5%CO2, 37° C.). At 48 hours post electroporation, the cells were selected in medium supplemented with 800 μg/ml G418. 9-12 days later, positive colonies were isolated and grown as clonal isolates to be used in a HIV protection assay.
as §1

| Sequence | inhibition of HIV-1 replication (HIV-1 (SF2) [1]) | p24 Production at Day 15 (HIV-1 IIIB) | Syncitia formation (HIV-1 (SF2) [2]; 6 Days Post Infection) | Syncitia formation (HIV-1 (SF2) [2]; 7 Days Post Infection) | Syncitia formation (HIV-1 (SF2) [2]; 8 Days Post Infection) | Syncitia formation (HIV-1 (SF2) [2]; 9 Days Post Infection) | Syncitia formation (HIV-1 (SF2) [2]; 10 Days Post Infection) | Syncitia formation (HIV-1 (SF2) [2]; 11 Days Post Infection) |
| --- | --- | --- | --- | --- | --- | --- | --- | --- |
| TTAGGATCCTGATGAGTCCGTGAGGACGAAACTGGCTC (chemistry not given here) [Rz-2, single ribozyme targeted to the HIV-1 tat gene] | effective in inhibiting HIV-1 replication | 1.90 ng/mL | – | – | – | – | – | – |
| GTCAAAAATTGGCGCTGATGAGTCCGTGAGGACGAAACTCACCAGTCGCCG (chemistry not given here) [Rz-Psi, single anti-HIV Psi packaging site ribozyme cloned into neo r gene of pSV2neo] | – | – | − (−, no syncytia) | − (−, no syncytia) | − (−, no syncytia) | − (−, no syncytia) | − (−, no syncytia) | − (−, no syncytia) |
